Data taken from patent US20230339997A1, “CLASS OF PLATINUM COMPOUNDS FOR TREATING CANCER, AND METHOD FOR PREPARATION THEREOF” (SHANGHAI HAIJU BIOLOGICAL TECHNOLOGY CO., LTD., priority 2020, published 2023).
In brackets after ≈: the same amount, converted by molar mass. Entries after “also recorded” stand apart in the source; their conditions may differ.

Key:
[1] = In vitro water solubility experiment; conditions: for solubility at 30 min / solubility: 25 °C, water, thermodynamic from solid; for improvement of water solubility compared with carboplatin: compared with the marketed drug carboplatin
Method: In Vitro Water Solubility Experiment of Example
At room temperature of 25° C., the test sample that had been ground into a fine powder was weighed accurately, and shaken vigorously for 30 seconds every 5 minutes in a certain volume of distilled water; and the dissolution of each test sample was observed within 30 minutes. If no visible solute particles were visible, the sample was considered to be completely dissolved.

[2] = background, studies have shown; cited from earlier work
[3] = test system: S180 sarcoma; assay: In vivo tumor inhibition experiment, transplanted tumor S180 in mice; design: species or system Kunming mice; conditions: for Tumor inhibition rate % / Tumor weight (g) X ± SD: S180 sarcoma mice, dl, 4, killed on eighth day
Method: In Vivo Tumor Inhibition Experiment of Example
The inhibitory effects of example S47 and example S70 of the present disclosure on animal transplanted tumor S180 were tested.
Kunming mice, ♀, 22±1 g, were purchased from Shanghai Slac Laboratory Animal Co., Ltd. Certificate number: SCXK (Shanghai) 2013-0010-02. Feeding environment: SPF level. Example S47, example S70 and carboplatin, a positive control drug, were prepared with 5% glucose to the required concentration. Mice were subcutaneously inoculated with S180 sarcoma cells, and the drug administration was started on the next day of inoculation. The mice were killed on the eighth day, and the tumor was weighed and the tumor inhibition rate was calculated.
Tumor inhibition rate=(tumor weight in the control group−tumor weight in the treatment group)/tumor weight in the control group×100

SMILES: [NH2][Pt]1([NH2])[O]C(=O)C2(CCC2)C(=O)[O]1 [carboplatin, reference compound]
- solubility at 30 min [1]: 16.6 mg/mL
- water solubility [2]: 17.0 mg/mL

SMILES: N=C(N)NCCC[C@@H]1NC(=O)[C@@H](CCCCNC(=O)CCOCCOCCOCCOCCNC(=O)CC[C@H](NC(=O)CCSCC2=CCC(=O)N2CC2CCC(C(=O)NN=C3CC(C(=O)O)(C(=O)O)C3)CC2)C(=O)NCCOCCOCCOCCOCCC(=O)NCCCC[C@H]2NC(=O)[C@@H](Cc3ccccc3)NC(=O)[C@H](CC(=O)O)NC(=O)CNC(=O)[C@H](CCCNC(=N)N)NC2=O)NC(=O)[C@@H](Cc2ccccc2)NC(=O)[C@H](CC(=O)O)NC(=O)CNC1=O (stereo partly drawn) [Example S97]
- solubility [1]: 30 mg/mL (≈ 13.1 mM)

SMILES: N=C(N)NCCC[C@@H]1NC(=O)[C@@H](CCCCNC(=O)CCOCCOCCOCCOCCNC(=O)CC[C@H](NC(=O)CCSC2CC(=O)N(CC3CCC(C(=O)NN=C4CC(C(=O)O)(C(=O)O)C4)CC3)C2=O)C(=O)NCCOCCOCCOCCOCCC(=O)NCCCC[C@H]2NC(=O)[C@@H](Cc3ccccc3)NC(=O)[C@H](CC(=O)O)NC(=O)CNC(=O)[C@H](CCCNC(=N)N)NC2=O)NC(=O)[C@@H](Cc2ccccc2)NC(=O)[C@H](CC(=O)O)NC(=O)CNC1=O (stereo partly drawn) [Example S95]
- solubility [1]: > 30 mg/mL

SMILES: CC(=O)N[C@@H](CCCNC(=N)N)C(=O)NCC(=O)N[C@@H](CC(=O)O)C(=O)NCCSC1CC(=O)N(CCCCCC(=O)NN=C2CC3(C2)C(=O)[O][Pt]([NH2])([NH2])[O]C3=O)C1=O (stereo partly drawn) [Example S70]
- Tumor inhibition rate % ([3]; dose 80, Ip): 52.3%
- Tumor weight (g) X ± SD ([3]; dose 80, Ip): 0.92 ± 0.20 g
- Tumor inhibition rate % ([3]; dose 160, Ip): 70.8%
- Tumor weight (g) X ± SD ([3]; dose 160, Ip): 0.56 ± 0.17 g
- Tumor inhibition rate % ([3]; dose 240, Ip): 84.6%
- Tumor weight (g) X ± SD ([3]; dose 240, Ip): 0.30 ± 0.14 g
- inhibitory effect on growth of S180 sarcoma of mice (in words) ([3]; compared with carboplatin at equimolar concentrations): more obvious ability to inhibit the growth of transplanted tumor S180 than the clinical drug carboplatin; also recorded: significantly better than carboplatin

SMILES: N=C(N)NCCC[C@@H]1NC(=O)[C@@H](CCCCNC(=O)CCOCCOCCOCCOCCNC(=O)CC[C@H](NC(=O)CCSC2CC(=O)N(CCCCCC(=O)NN=C3CC4(C3)C(=O)[O][Pt]([NH2])([NH2])[O]C4=O)C2=O)C(=O)NCCOCCOCCOCCOCCC(=O)NCCCC[C@H]2NC(=O)[C@@H](Cc3ccccc3)NC(=O)[C@H](CC(=O)O)NC(=O)CNC(=O)[C@H](CCCNC(=N)N)NC2=O)NC(=O)[C@@H](Cc2ccccc2)NC(=O)[C@H](CC(=O)O)NC(=O)CNC1=O (stereo partly drawn) [Example S72]
- solubility at 30 min [1]: > 30 mg/mL
- improvement of water solubility compared with carboplatin [1]: ~1 fold

SMILES: N=C(N)NCCC[C@@H]1NC(=O)[C@@H](CCCCNC(=O)CCOCCOCCOCCOCCNC(=O)CC[C@H](NC(=O)CCSC2CC(=O)N(CCOCCOCCC(=O)NN=C3CC4(C3)C(=O)[O][Pt]([NH2])([NH2])[O]C4=O)C2=O)C(=O)NCCOCCOCCOCCOCCC(=O)NCCCC[C@H]2NC(=O)[C@@H](Cc3ccccc3)NC(=O)[C@H](CC(=O)O)NC(=O)CNC(=O)[C@H](CCCNC(=N)N)NC2=O)NC(=O)[C@@H](Cc2ccccc2)NC(=O)[C@H](CC(=O)O)NC(=O)CNC1=O (stereo partly drawn) [Example S80]
- solubility at 30 min [1]: > 30 mg/mL
- improvement of water solubility compared with carboplatin [1]: ~1 fold
